Key:
[1] = test system: procaspase-9, 3 and 7, PARP-1; assay: Western blot of caspase proteins and PARP-1 cleavage in SH-SY5Y cells; format: cell-based, human; conditions: rotenone alone; FIGS. 17A-17D, 18A-18D
Description: (§1) SH-SY5Y cells were divided into a treated group treated with ROT (0.5 μM) for 24 hours and an untreated group, followed by culturing in DMSO solvent. Thereafter, the culture was removed, and the cells were divided into hBMSC-CM-treated group, NI-hBMSC-CM-treated group, hADSC-CM-treated group and NI-hADSC-CM-treated group in 50% diluted DMEM, followed by culturing each group in ROT (0.5 μM)-treated and untreated groups, respectively, for 24 hours. FBS was maintained at a concentration of 1% throughout the study. Phase contrast images were taken using an Olympus microscope (CKX41) equipped with a camera. […] The number of surviving cells was counted using LUNA-II™ (Logos Biosystems, Gyeonggi-do, Republic of Korea) automatic cell counter. Cell count analysis was performed three times and expressed as a percentage (%) of the control.
(§2) After incubation for a total of 48 hours, the cells were scraped using a cell scraper, washed twice with PBS, and then exposed to a cell lysis buffer supplemented with protease inhibitor and phosphatase inhibitor (100 mM Tris-HCl (pH 7.6), 100 mM NaCl, 1% Nonidet P-40, 1% sodium deoxycholate, 0.1% sodium dodecyl sulfate (SDS) and 1% Triton X-100), followed by incubation on ice for 30 minutes. […] The protein concentration was measured using a BCA protein assay kit (Thermo Fisher Scientific, Waltham, MA, USA #23225) according to the manufacturer's instructions. […]

BAX, Bcl-2 and Mcl-1 = assay: Western blot of apoptosis-related proteins Bax, Bcl-2, Mcl-1 in SH-SY5Y cells; format: cell-based, human; conditions: rotenone alone
Description: (§3) SH-SY5Y cells were divided into a treated group treated with ROT (0.5 μM) for 24 hours and an untreated group, followed by culturing in DMSO solvent. Thereafter, the culture was removed, and the cells were divided into hBMSC-CM-treated group, NI-hBMSC-CM-treated group, hADSC-CM-treated group and NI-hADSC-CM-treated group in 50% diluted DMEM, followed by culturing each group in ROT (0.5 μM)-treated and untreated groups, respectively, for 24 hours. FBS was maintained at a concentration of 1% throughout the study. Phase contrast images were taken using an Olympus microscope (CKX41) equipped with a camera. Damaged and depleted suspended cells in the culture and adherent cells isolated by trypsinization were combined and a trypan blue cell counting method was applied. The number of surviving cells was counted using LUNA-II™ (Logos Biosystems, Gyeonggi-do, Republic of Korea) automatic cell counter. Cell count analysis was performed three times and expressed as a percentage (%) of the control.
(§4) After incubation for a total of 48 hours, the cells were scraped using a cell scraper, washed twice with PBS, and then exposed to a cell lysis buffer supplemented with protease inhibitor and phosphatase inhibitor (100 mM Tris-HCl (pH 7.6), 100 mM NaCl, 1% Nonidet P-40, 1% sodium deoxycholate, 0.1% sodium dodecyl sulfate (SDS) and 1% Triton X-100), followed by incubation on ice for 30 minutes. The eluate was centrifuged at 13,200 rpm and at 4° C. for 15 minutes, and the supernatant was collected. The protein concentration was measured using a BCA protein assay kit (Thermo Fisher Scientific, Waltham, MA, USA #23225) according to the manufacturer's instructions.
(§5) Protein (15 μg) was separated on an 8-14% SDS-polyacrylamide gel and transferred to a nitrocellulose membrane (Millipore, Berlington, MA, USA, HATF00010), and the membrane was washed with PBS containing 0.5% (v/v) Tween 20 (PBS-T), followed by blocking with 5% (v/v) non-fat dry milk solution included in the preparation of PBS-T. Then, it was incubated overnight at 4° C. with the primary antibody. […]

[2] = test system: Triton X-100 insoluble alpha-synuclein (p-S129 α-syn, total α-syn); assay: Western blot of Triton X-100 insoluble alpha-synuclein in SH-SY5Y cells; format: cell-based, human; conditions: ROT-treated group, insoluble fraction
Description: as §3
After 48 hours of experiment, SH-SY5Y cells were lysed in cell lysis buffer containing a protease inhibitor and a phosphatase inhibitor together with the above-described 1% Triton X-100 for 30 minutes. […] The protein concentration was measured using a BCA protein assay kit. […] The same protein load was assessed by the expression level of GAPDH used as an internal control. […]

[3] = test system: NF—H, β3-tubulin, NeuN, SYP; assay: Western blot of neuron-specific proteins in SH-SY5Y cells; format: cell-based, human; conditions: rotenone treatment (0.5 μM, 48 hours); FIGS. 13A-13D, 14A-14D
Description: as §4
as §5, with “antibody. Thereafter, the cell membrane was exposed to a secondary antibody conjugated to horseradish peroxidase at room temperature (RT) for 2-3 hours, and washed three times with PBS-T. Signals were detected by an enhanced chemiluminescence (ECL) system (Millipore, WBLUR0500) using a LAS 4000 luminescent image analyzer (GE Healthcare, Japan).” for “antibody.”

[4] = test system: tyrosine hydroxylase (TH); assay: Western blot of tyrosine hydroxylase protein expression in SH-SY5Y cells; format: cell-based, human; conditions: 0.5 μM rotenone alone; FIGS. 3 and 4
Description: as §1, §2

[5] = Rotenone toxicity, trypan blue cell counting of surviving cells; format: cell-based; conditions: human, SH-SY5Y neuroblastoma cells, 0.5 μM rotenone
Description: The human neuroblastoma cell line, that is, SH-SY5Y (RRID: CVCL 0019; ATCC® CRL-2266) was cultured in DMEM supplemented with 10% FBS and 1% penicillin-streptomycin (Welgene Inc., Gyeonsangbuk-do, Republic of Korea) at 37° C. under a wet condition of 5% CO2/95% air. The mixed culture (passages 15-22) was washed with phosphate-buffered saline (PBS), the cells were isolated with 0.25% trypsin-EDTA solution and then reseeded in DMEM containing 1% FBS at 5×10^4 cells/Ml. Then, after overnight incubation, it was used for experiments. ROT (Sigma R8875) stock was prepared at a concentration of 10 mM in […] (DMSO; Sigma D2650) solvent, stored at −80° C., and used within 6 months. Before starting each experiment, a serum-free DMEM culture was diluted to prepare a ROT stock working solution.
SH-SY5Y cells were divided into a treated group treated with ROT (0.5 μM) for 24 hours and an untreated group, followed by culturing in DMSO solvent. […] The number of surviving cells was counted using LUNA-II™ (Logos Biosystems, Gyeonggi-do, Republic of Korea) automatic cell counter. Cell count analysis was performed three times and expressed as a percentage (%) of the control.

In the case of `C=C(C)[C@H]1Cc2c(ccc3c2O[C@@H]2COc4cc(OC)c(OC)cc4[C@@H]2C3=O)O1` [rotenone], the cleaved-PARP/pro-PARP ratio [1] is reported as “greatly increased”, the “expression of procaspase-9, 3 and 7” value [1] is reported as “greatly decreased” and the Bax/Bcl-2 ratio (BAX, Bcl-2 and Mcl-1) is reported as “greatly increased”. For the same compound, the Bax expression (BAX, Bcl-2 and Mcl-1; FIGS. 15A-15D, 16A-16D) was “significantly increased”, the “expression of Bcl-2 and Mcl-1” value (BAX, Bcl-2 and Mcl-1; FIGS. 15A-15D, 16A-16D) was “significantly inhibited” and the “phosphorylated S129 alpha-synuclein/total alpha-synuclein ratio with respect to dimers and monomers” value [2] was “significantly decreased”. The “expression of NF—H, β3-tubulin, NeuN and SYP” value [3] was “reduced”, the “protein expression of tyrosine hydroxylase” value [4] was “decreased” and the viability at 48 h, 0.5 μM [5] was 55%.
